Reference: patent US20150080466A1, “DIPHENYL UREA DERIVATIVES AS FORMYL PEPTIDE RECEPTOR MODULATORS” (Allergan, Inc., priority 2013, published 2015)
pEC50: −log10 of the molar value.

Target: T1, FPR2 (Homo sapiens, UniProt P25090)
T1 construct: expressed in transfected cells
T1 sequence (P25090 1-351): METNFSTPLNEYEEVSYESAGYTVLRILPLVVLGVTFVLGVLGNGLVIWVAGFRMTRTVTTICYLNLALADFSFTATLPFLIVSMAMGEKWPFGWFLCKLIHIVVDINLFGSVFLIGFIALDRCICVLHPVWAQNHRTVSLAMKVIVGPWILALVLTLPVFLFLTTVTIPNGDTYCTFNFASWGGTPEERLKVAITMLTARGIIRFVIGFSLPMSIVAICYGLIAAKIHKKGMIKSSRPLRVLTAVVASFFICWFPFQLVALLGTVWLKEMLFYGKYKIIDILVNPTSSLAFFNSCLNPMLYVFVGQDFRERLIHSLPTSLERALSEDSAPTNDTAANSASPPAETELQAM
Assay: Compound-induced calcium activity on FLIPR Tetra in CHO-Gα16 cells stably expressing FPRL1
Assay type: cell-based
Details: for FPR2 Ga16-CHO (Rel. eff.): relative efficacy; for pEC50: tested at 0.61 to 10,000 nM, read-out: FPR2 Ga16-CHO EC50
Method: CHO-Gα16 cells stably expressing FPRL1 were cultured in (F12, 10% FBS, 1% PSA, 400 μg/ml geneticin and 50 μg/ml hygromycin) and HEK-Gqi5 cells stable expressing FPR1 were cultured in (DMEM high glucose, 10% FBS, 1% PSA, 400 μg/ml geneticin and 50 μg/ml hygromycin). In general, the day before the experiment, 18,000 cells/well were plated in a 384-well clear bottom poly-d-lysine coated plate. The following day the screening compound-induced calcium activity was assayed on the FLIPR^Tetra. The drug plates were prepared in 384-well microplates using the EP3 and the MultiPROBE robotic liquid handling systems. Compounds were tested at concentrations ranging from 0.61 to 10,000 nM. Results are expressed as EC50 (nM) and efficacy values.

| FPR2 Ga16-CHO (Rel. eff.) | pEC50 | SMILES |
| --- | --- | --- |
| (1.00) | 5.91 | O=C(O)CCc1ccccc1NC(=O)Nc1ccc(Br)cc1 [Compound 1, 3-(2-{[(4-Bromophenyl)carbamoyl]amino}phenyl)propanoic Acid] |
| (0.96) | 6.04 | COC(=O)CCCNC(=O)CCc1ccccc1NC(=O)Nc1ccc(Br)cc1 [Compound 2, Methyl 4-{[3-(2-{[(4-Bromophenyl)carbamoyl]amino}phenyl)propanoyl]amino}butanoate] |
| (1.00) | 6.51 | COC(=O)CCNC(=O)CCc1ccccc1NC(=O)Nc1ccc(Br)cc1 [Compound 3, Methyl3-{[3-(2-{[(4-bromophenyl)carbamoyl]amino}phenyl)propanoyl]amino}propanoate] |
| (0.99) | 5.69 | O=C(O)CCCNC(=O)CCc1ccccc1NC(=O)Nc1ccc(Br)cc1 [Compound 4, 4-{[3-(2-{[(4-Bromophenyl)carbamoyl]amino}phenyl)propanoyl]amino}butanoic Acid] |
| (1.00) | 6.20 | O=C(O)CCNC(=O)CCc1ccccc1NC(=O)Nc1ccc(Br)cc1 [Compound 5, 3-{[3-(2-{[(4-Bromophenyl)carbamoyl]amino}phenyl)propanoyl]amino}propanoic acid] |
| (0.80) | 6.74 | COC(=O)CNC(=O)CCc1ccccc1NC(=O)Nc1ccc(Br)cc1 [Compound 6, Methyl {[3-(2-{[(4-bromophenyl)carbamoyl]amino}phenyl)propanoyl]amino}acetate] |
| (0.76) | 6.39 | O=C(O)CNC(=O)CCc1ccccc1NC(=O)Nc1ccc(Br)cc1 [Compound 7, {[3-(2-{[(4-Bromophenyl)carbamoyl]amino}phenyl)propanoyl]amino}acetic acid] |
